Data on five compounds can be found in US20110171300A1, “DELTA 9 TETRAHYDROCANNABINOL DERIVATIVES” ([…] LIMITED, priority 2007, published 2011).

The nature of data set [1]: Stability to light and air at ambient temperature. The format is physicochemical.
The conditions of data set [2]: air; cited from earlier work.

Consider `CCCCCc1cc2c(c(OS(=O)(=O)C[C@]34CCC(CC3=O)C4(C)C)c1)[C@@H]1C=C(C)CC[C@H]1C(C)(C)O2` [Example 1, Δ9-THC (1S)-(+)-Camphorsulfonate], for which, in data set [1], the Stability entry was “Stable to light and air at ambient temperature”.
Turning to `CCCCCc1cc2c(c(OS(=O)(=O)c3cccs3)c1)[C@@H]1C=C(C)CC[C@H]1C(C)(C)O2` [Example 2, Δ9-THC 2-thiophene sulfonate], the Stability result in data set [1] is “Stable to light and air at ambient temperature”.
Turning to `CCCCCc1cc2c(c(OS(=O)(=O)CCC)c1)[C@@H]1C=C(C)CC[C@H]1C(C)(C)O2` [Example 3, Δ9-THC n-propyl sulfonate], in data set [1], the Stability result was “Stable to light and air at ambient temperature”.
Same read-out and setting: the result for `CCCCCc1cc2c(c(OS(=O)(=O)CCCCl)c1)[C@@H]1C=C(C)CC[C@H]1C(C)(C)O2` [Example 4, Δ9-THC 3-chloropropyl sulfonate] reads “Stable to light and air at ambient temperature”.
As for `CCCCCc1cc(O)c2c(c1)OC(C)(C)[C@@H]1CCC(C)=C[C@@H]21` [Δ9-THC, Δ9-tetrahydrocannabinol], the “Stability at room temperature” value in data set [2] is “relatively unstable”.
